Tests used:
[1] = system: SCID mice (C.B-17/lcrHsd-Prkcd); assay: experimental colitis transfer model (CD45RBHigh cells injected into SCID mice); format: in vivo, mouse; conditions: 50 mg/kg oral gavage twice a week
Experimental: To study the application of miltefosine as an anti-inflammatory drug, miltefosine was tested in the experimental colitis transfer model. In this model SCID mice, lacking T and B lymphocytes, are injected with only effector T lymphocytes (CD4^+CD45RB^High) omitting regulatory T lymphocytes (CD4^+CD45RB^Low). The absence of the letter causes, over a period of two months, the development of chronic inflammation of the colon.
Mouse CD4 positive lymphocytes were isolated from the spleen of normal mice (Balb/c OlaHsd). The spleen was removed, forced through a cell strainer to obtain a single cell suspension. Erythrocytes were lysed by adding water, quickly followed by PBS. The remaining cells were enriched in CD4 positive cells by negative depletion using magnetic beads specific for B cell (anti-B220), macrophages (anti-Mac-1) and cytotoxic T lymphocytes (anti-CD8). The remaining cell were washed and labeled for CD4 (CD4-PerCP-Cy5) and CD45RB (CD45RB-FITC). Using a FACS sorter the cell were separated in CD4 cells expressing low levels of CD45RB (CD45RB^Low) and high levels of CD45RB (CD45RB^High).
To induce colitis, SCID mice (C.B-17/lcrHsd-Prkcd) were injected with 5·10^5 CD45RB^High cells.
The mice were divided in three groups, each group containing 10 mice. […] Group two and three both received only CD45RB^High cells and developed colitis. Only group three received miltefosine (50 mg/kg) via oral gavage. Treatment started two weeks after the start of the experiment and was given twice a week until the end of the experiment. The mice were weighted three times a week during the entire duration of the experiment.
Part of the colon of each mouse was embedded in paraffin, cut and stained with hematoxylin and eosin (HE). The pathology score takes in account epithelial cell hyperplasia, leukocyte infiltrations, loss of goblet cells, ulceration and cryptabscesses.

[2] = 50 mg/kg per treatment; reported in literature; cited from earlier work
[3] = system: human patients; conditions: high dosages; cited from earlier work

weight loss in two days time ([1]; after day 42): ten | average weight at the end of the experiment ([1]; between the groups): does not differ significantly
Compound: CCCCCCCCCCCCCCCCOP(=O)([O-])OCC[N+](C)(C)C [miltefosine, hexadecyl phosphocholine]
average weight of the group versus negative control group ([1]; till day 42): corresponded with the negative control group | effect on bodyweight [2]: can affect bodyweight negatively | side effects in human patients [3]: nausea and vomiting

Source: patent publication US20160067269A1, “Miltefosin Or Perifosin For Use In The Treatment of IBD” (ACADEMISCH MEDISCH CENTRUM, priority 2013, published 2016)
